Entries after “also recorded” stand apart in the source; their conditions may differ.
Legend:
Type in all cases: cell-based
[1] = system: cell mixture derived from a whole heart extracted from neonatal rat heart; assay: Fluorescent microscope observation of labeled neonatal rat whole-heart cell mixture; details: 100 nM, 10 minutes at 37° C., cultured 24 hours
Description: (§1) Neonatal rats 1-3 days after birth were sacrificed by cervical dislocation after ether anesthesia, after which the heart of each rats was isolated. Cardiac ventricle isolated from the heart was treated with 0.025% (w/v) of collagenase (available from Warthington Biomedical Corporation) in serum free D-MEM (High-glucose) medium (available from Invitrogen). By digesting the cardiac ventricle using collagenase, cells were dispersed in the medium to prepare a cell mixture derived from a whole heart.
(§2) Subsequently, the culture medium was replaced by D-MEM (High-glucose) medium (available from Invitrogen) supplemented with 10% (final concentration) of fetal bovine serum (available from JRH Bioscience). Thus prepared cultured cells were incubated in the culture medium containing 100 nM (final concentration) of a mitochondrial indicator, M7512 (available from Molecular Probe) for 10 minutes at 37° C. After incubation, the cells were washed 4 times using the culture medium and further cultured for 24 hours at 37° C.

[2] = system: cell mixture derived from a mouse embryonic stem cell; assay: Fluorescent microscope observation of labeled mouse embryonic stem cell derived cell mass; details: labeled as Example 1, adhesion culture 5 days after removal of M7512
Description: Fourteen days after differentiation and induction, a cell mass containing an autonomously pulsating cardiomyocyte was confirmed to be formed in the culture vessel, to which 10^−8 M of all trans-retinoic acid was added for further enhancing the degree of differentiation/induction of the cardiomyocyte.
At 21st day from differentiation/induction, a cell mass containing an autonomously pulsating cardiomyocyte was dispersed into separate cells to form a cell mixture. Thus prepared cell mixture was labeled with M7512 under the same condition as that of Example 1 and cultured under the condition of the adhesion culture for further 5 days after removal of M7512. After further culture for 5 days, a cell mass containing an autonomously pulsating cardiomyocyte prepared under the culture condition was observed using a fluorescent microscope.

[3] = system: cell mixture derived from a whole heart extracted from neonatal rat heart; assay: Labeling of neonatal rat whole-heart cell mixture with mitochondrial indicator, FACS sorting, anti-Sarcomeric α-Actinin immunostaining; details: for percentage of cardiomyocyte in cells with relatively higher fluorescent intensity (P5 area): cultured 24 hours
Description: as §1, §2
The cell mixture derived from a whole heart was prepared in accordance with the method described in Example 1 and labeled with M7512. The labeled cell mixture derived from a whole heart was subjected to analysis of distribution of the cells of the cell mixture derived from a whole heart using FACS (registered trademark) (BD, Franklin Lakes, N.J. USA).
In this example, cells of P5 area were sorted as a cardiomyocyte and cells of P6 area were sorted as a non-cardiomyocyte, each then being separately subjected to the cell culture.
(§3) Next, the fixed cells were labeled with a cardiomyocyte marker, mouse anti-Sarcomeric α-Actinin Antibody (available from SIGMA), which were visualized using green fluorescent material-conjugated goat anti-mouse antibody (available from Molecular Probes).
In this example, the cell mixture derived from a whole heart extracted from a neonatal rat heart, which was labeled with a mitochondrial indicator, was prepared by the same method as that described in Example 1, except that T3168 (available from Molecular Probe) was used as a mitochondrial indicator.
Thus selected cells were cultured followed by paraformaldehyde fixation by the same method as that described in Example 5, which were labeled with mouse anti-Sarcomeric α-Actinin Antibody (available from SIGMA).
Neonatal rat heart was treated with 0.025% (w/v) of collagenase (available from SIGMA) and trypsin (available from GIBCO) to collect a cell population. Cells dispersed in the culture medium were exposed to 1 μM (final concentration) of a mitochondrial indicator, T668 (available form Molecular Probe) for 15 minutes at 37° C., washed 3 times, and immediately analyzed by FACS.
Neonatal rat heart was treated with collagenase and trypsin to collect a cell population. Cells dispersed in the culture medium were exposed to 1 μM (final concentration) of a mitochondrial indicator S7563 for 15 minutes at 37° C., washed 3 times, and immediately analyzed by FACS.

[4] = system: cell mixture derived from a mouse embryonic stem cell; assay: Labeling of mouse embryonic stem cell derived cell mixture with mitochondrial indicator, FACS sorting, Actinin immunostaining
From the text: as §3

[5] = system: fetal rat cells derived from a whole heart; assay: Staining of fetal rat whole-heart cells (13th day post conception), FACS sorting, anti-Actinin immunostaining; details: fetal rat heart of 13th day post conception; 1 μM, 15 minutes at 37° C.
Description: Fetal rat heart of 13th day post conception was treated with collagenase and trypsin to collect a cell population. Cells dispersed in the culture medium were exposed to 1 μM (final concentration) of a mitochondrial indicator T668 for 15 minutes at 37° C., washed 3 times, and immediately subjected to FACS analysis. The cells were separated into 3 groups of cell population based on T668 fluorescent intensity (FIG. 9-1).
Then, the cardiomyocyte was identified by immunostaining of the cultured cell using anti-Actinin antibody.

[6] = system: rat cells derived from a whole heart; assay: Staining of rat whole-heart cells from 11th day post conception to 8 days after birth and FACS analysis; details: 11th day post conception to 8 days after birth; 1 μM, 15 minutes at 37° C.
Description: Rat heart obtained at 11th day post conception to 8 days after birth was treated with collagenase and trypsin to collect a cell population. Cells dispersed in the culture medium were exposed to 1 μM (final concentration) of a mitochondrial indicator T668 for 15 minutes at 37° C., washed 3 times, and immediately analyzed by FACS. In consequence, the cell population was isolated by T668 fluorescent intensity. […] Therefore, it is shown that it is possible to presume the maturity of the cardiomyocyte by the method provided by the present specification.

[7] = system: neonatal rat cells derived from a whole heart; assay: Double staining with T668 and M7514, comparative FACS analysis of transmembrane potential per mitochondria
Description: Cell population was collected using the same materials and the same method as those described in Example 8. Thus collected cardiomyocytes were stained with a mitochondrial indicator, M7514 (available from Molecular Probe), independent of the transmembrane potential which can specifically stain mitochondria and with a mitochondrial indicator T668 dependent on the transmembrane potential which can also specifically stain mitochondria. The cells were analyzed using FACS immediately after the staining. It is possible to separately detect the fluorescence of T668 and that of M7514 since the wavelength of the fluorescence from T668 is different from that from M7514. In this example, three groups of cell population were detected based on T668 fluorescence as an indicator.
Next, each cell population is separated based on the ratio of fluorescent intensity derived from T668 divided by fluorescent intensity derived from M7514. […]

whole fetal cells = assay: Staining of whole fetal cells (fetal rat of 9th day post conception), FACS sorting, Actinin immunostaining; details: 1 μM, 15 minutes at 37° C.
Description: Fetal rat of 9th day post conception was treated with collagenase and trypsin to collect cell population. Cells dispersed in the culture medium were exposed to 1 μM (final concentration) of a mitochondrial indicator T668 for 15 minutes at 37° C., washed 3 times, and immediately subjected to FACS analysis. One single cell population was mainly observed as a cell population based on the fluorescent intensity. On the other hand, in the high fluorescent intensity area in which the cardiomyocyte was predicted to be detected based on the analysis of a whole heart sample from the later development stage, a definite cell population could not be found (FIG. 10-1).
The cells were cultured and immunostained with an antibody against a cardiomyocyte marker, Actinin. […] Since the cardiomyocyte is extremely immature in the fetus of 9th day post conception (early embryo), it is considered in the art that quantitative alteration of the mitochondria has not completely occurred.

[8] = 100 nM indicator, 10 minutes at 37° C., FACS sorted, anti-Sarcomeric α-Actinin, 30% before selection
[9] = 1 μM indicator, 15 minutes at 37° C., immediate FACS, anti-Actinin immunostaining
[10] = 1 μM, 15 minutes at 37° C., immediate FACS, Actinin immunostaining

ClCc1ccc(C2=c3cc4c5c(c3Oc3c2cc2c6c3CCCN6CCC2)CCC[N+]=5CCC4)cc1.[Cl-] [M7512, 1H,5H,11H,15H-Xantheno[2,3,4-ij:5,6,7-i′j′]diquinolizin-18-ium, 9-[4-(chloromethyl)phenyl]-2,3,6,7,12,13,16,17-octahydro-, chloride]
indicator-based fluorescence under fluorescent microscope [1]: clearly observed in a cardiomyocyte
labeling of autonomously pulsating cardiomyocytes compared with other types of cells [2]: strongly labeled
percentage of cardiomyocyte in cells with relatively higher fluorescent intensity (P5 area) [3, 8]: more than 99%
percentage of cardiomyocyte in cells with relatively lower fluorescent intensity (P6 area) [3, 8]: approximately equal to the percentage of the cardiomyocyte before the selection
percentage of cardiomyocyte in cells collected from P2 area (relatively higher fluorescent intensity) ([4]; M7512 labeling as Example 1, 5 days culture after removal, 10% before selection): more than 80%

COC(=O)c1ccccc1-c1c2ccc(=N)cc-2oc2cc(N)ccc12.Cl [R302]
composition of cell population with the highest fluorescent intensity [3, 9]: cells of interest can also be obtained

COC(=O)c1ccccc1-c1c2ccc(N(C)C)cc2[o+]c2cc(N(C)C)ccc12 [T668, Xanthylium, 3,6-bis(dimethylamino)-9-(2-(methoxycarbonyl)phenyl)-, perchlorate]
composition of cell population with the highest fluorescent intensity [5]: almost all cells of the cell population with the highest intensity of T668 consist of a cardiomyocyte; also recorded: almost all cells of the cell population with the highest intensity of T668 fluorescent signal consist of the cardiomyocyte
composition of cell population with the middle fluorescent intensity [5]: almost all cells of the cell population with the middle fluorescent population consist of a non-cardiomyocyte; also recorded: almost all cells of the cell population with the middle fluorescent intensity consist of the non-cardiomyocyte
high fluorescent cardiomyocyte population as the development stage progressed [6]: increased in number
cells with ratio of T668 fluorescent intensity to M7514 fluorescent intensity of more than 150%, share of total cells ([7]; cell population identified as a cardiomyocyte based on T668 signal): 90%
cells with ratio of T668 fluorescent intensity to M7514 fluorescent intensity of more than 150%, share of total cells ([7]; cell population identified as a non-cardiomyocyte based on T668 signal): 13%
percentage of cardiomyocyte in high fluorescent cell population (whole fetal cells): more than 95%
composition of cell population with the highest fluorescent intensity [3, 9]: almost all cells of the cell population with the highest intensity of T668 fluorescent signal consist of a cardiomyocyte
composition of cell population with the middle fluorescent intensity [3, 9]: almost all cells of the cell population with the middle fluorescent intensity consist of a non-cardiomyocyte
composition of main cell population [4, 10]: Almost all of the cells collected consist of a non-cardiomyocyte
percentage of cardiomyocyte in high fluorescent cell population [4, 10]: More than 98%

CCN1C(=CC=Cc2n(CC)c3cc(Cl)c(Cl)cc3[n+]2CC)N(CC)c2cc(Cl)c(Cl)cc21 [T3168, 1H-Benzimidazolium, 5,6-dichloro-2-[3-(5,6-di-chloro-1,3-diethyl-1,3-dihydro-2H-benzimidazol-2-ylidene)-1-propenyl]-1,3-diethyl-, iodide, (E)-]
percentage of cardiomyocyte in cells with relatively higher fluorescent intensity (P5 area) [3, 8]: more than 95%
